Assay results as given in US20110086759A1, “CHEMICAL COMPOUNDS” (SYNGENTA CROP PROTECTION, INC., priority 2007, published 2011).

Assays:
Format in all cases: in vivo
[1] = test system: Setaria faberi (SETFA); assay: Post-emergence biological efficacy, glasshouse pot test; conditions: 312 h, post-emergence, 1,000 g/ha, evaluated after 13 days (100=total damage; 0=no damage), read-out: Percentage damage caused to weed species, SETFA
Procedure, shortened: (§1)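 Scored 13 days after spraying on a 0 (no damage) to 100 (total damage) scale. Treatment was a post-emergence spray at 1000 or 250 g/ha, from acetone/water 50:50 plus 0.5% Tween 20, onto 8-day-old plants in soil pots. Growth at 24/16° C, 14 h photoperiod, 65% humidity, watered twice daily.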

[2] = test system: Echinochloa crus-galli (ECHCG); assay: as above; conditions: 312 h, post-emergence, 1,000 g/ha, evaluated after 13 days (100=total damage; 0=no damage), read-out: Percentage damage caused to weed species, ECHCG
Procedure, shortened: as §1

[3] = test system: Solanum nigrum (SOLNI); assay: as above; conditions: 312 h, post-emergence, 1,000 g/ha, evaluated after 13 days (100=total damage; 0=no damage), read-out: Percentage damage caused to weed species, SOLNI
Procedure, shortened: as §1

[4] = test system: Alopecurus myosuroides (ALOMY); assay: as above; conditions: 312 h, post-emergence, 1,000 g/ha, evaluated after 13 days (100=total damage; 0=no damage), read-out: Percentage damage caused to weed species, ALOMY
Procedure, shortened: as §1

[5] = test system: Ipomea hederaceae (IPOHE); assay: as above; conditions: Ipomoea hederacea, 312 h; post-emergence, 1,000 g/ha, evaluated after 13 days (100=total damage; 0=no damage); read-out: Percentage damage caused to weed species, IPOHE
Procedure, shortened: as §1

[6] = test system: Amaranthus retoflexus (AMARE); assay: as above; conditions: Amaranthus retroflexus, 312 h; post-emergence, 1,000 g/ha, evaluated after 13 days (100=total damage; 0=no damage); read-out: Percentage damage caused to weed species, AMARE
Procedure, shortened: as §1

[7] = test system: Setaria faberi (SETFA); assay: Pre-emergence biological efficacy, glasshouse pot test; conditions: 312 h, pre-emergence, 1,000 g/ha, evaluated after 13 days (100=total damage; 0=no damage), read-out: Percentage damage SETFA
Procedure, shortened: (§2)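 Damage was rated on a 0–100 scale 13 days after treatment, with plants kept at 24/16° C, 14 h light and 65% humidity. The pre-emergence spray, at 1000 or 250 g/ha in acetone/water 50:50 with 0.5% Tween 20, was applied one day after sowing.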

[8] = test system: Echinochloa crus-galli (ECHCG); assay: as above; conditions: 312 h, pre-emergence, 1,000 g/ha, evaluated after 13 days (100=total damage; 0=no damage), read-out: Percentage damage ECHCG
Procedure, shortened: as §2

[9] = test system: Solanum nigrum (SOLNI); assay: as above; conditions: 312 h, pre-emergence, 1,000 g/ha, evaluated after 13 days (100=total damage; 0=no damage), read-out: Percentage damage SOLNI
Procedure, shortened: as §2

[10] = test system: Alopecurus myosuroides (ALOMY); assay: as above; conditions: 312 h, pre-emergence, 1,000 g/ha, evaluated after 13 days (100=total damage; 0=no damage), read-out: Percentage damage ALOMY
Procedure, shortened: as §2

[11] = test system: Ipomea hederaceae (IPOHE); assay: as above; conditions: Ipomoea hederacea, 312 h; pre-emergence, 1,000 g/ha, evaluated after 13 days (100=total damage; 0=no damage); read-out: Percentage damage IPOHE
Procedure, shortened: as §2

[12] = test system: Amaranthus retoflexus (AMARE); assay: as above; conditions: Amaranthus retroflexus, 312 h; pre-emergence, 1,000 g/ha, evaluated after 13 days (100=total damage; 0=no damage); read-out: Percentage damage AMARE
Procedure, shortened: as §2

**Q.** Which results are given for COC(=O)c1nc(C2CC2)nc(NC(C)c2ccccc2)c1Cl (stereo not drawn) [Compound 4-174, 5-Chloro-2-cyclopropyl-6-methoxycarbonyl-4-(1-phenylethyl-amino)pyrimidine]?
**A.** pest or weed control at 1000 g/ha [1]: 90%; pest or weed control at 1000 g/ha [2]: 90%; pest or weed control at 1000 g/ha [3]: 90%; pest or weed control at 1000 g/ha [4]: 30%; pest or weed control at 1000 g/ha [5]: 100%; pest or weed control at 1000 g/ha [6]: 100%; pest or weed control at 1000 g/ha [7]: 20%; pest or weed control at 1000 g/ha [8]: 30%; pest or weed control at 1000 g/ha [9]: 70%; pest or weed control at 1000 g/ha [10]: 20%; pest or weed control at 1000 g/ha [11]: 50%; pest or weed control at 1000 g/ha [12]: 80%

**Q.** Which pest or weed control at 1000 g/ha [1] does the source give for COC(=O)c1nc(C2CC2)nc(NC(C)c2ccc(F)cc2)c1Cl (stereo not drawn) [Compound 4-175, 5-Chloro-2-cyclopropyl-4-[1-(4-fluorophenyl)ethyl-amino]-6-methoxy-carbonylpyrimidine] here?
**A.** 90%

**Q.** And the pest or weed control at 1000 g/ha [2]?
**A.** 60%

**Q.** What about the pest or weed control at 1000 g/ha [3] of the same compound?
**A.** 100%

**Q.** And the pest or weed control at 1000 g/ha [4]?
**A.** 20%

**Q.** And the pest or weed control at 1000 g/ha [5]?
**A.** 100%

**Q.** And the pest or weed control at 1000 g/ha [6]?
**A.** 100%

**Q.** And the pest or weed control at 1000 g/ha [7]?
**A.** 0%

**Q.** And the pest or weed control at 1000 g/ha [8]?
**A.** 10%

**Q.** What about the pest or weed control at 1000 g/ha [9] of the same compound?
**A.** 10%

**Q.** And the pest or weed control at 1000 g/ha [10]?
**A.** 10%

**Q.** And the pest or weed control at 1000 g/ha [11]?
**A.** 70%

**Q.** What about the pest or weed control at 1000 g/ha [12] of the same compound?
**A.** 50%

**Q.** Which pest or weed control at 1000 g/ha [1] does the source give for COC(=O)c1nc(C2CC2)nc(NC(C)c2ccc(Cl)cc2)c1Cl (stereo not drawn) [Compound 4-176, 5-Chloro-4-[1-(4-chlorophenyl)ethyl-amino]-2-cyclo-propyl-6-methoxy-carbonylpyrimidine] here?
**A.** 70%

**Q.** What about the pest or weed control at 1000 g/ha [2] of the same compound?
**A.** 50%

**Q.** What about the pest or weed control at 1000 g/ha [3] of the same compound?
**A.** 100%

**Q.** What about the pest or weed control at 1000 g/ha [4] of the same compound?
**A.** 20%

**Q.** What about the pest or weed control at 1000 g/ha [5] of the same compound?
**A.** 100%

**Q.** What about the pest or weed control at 1000 g/ha [6] of the same compound?
**A.** 100%

**Q.** What about the pest or weed control at 1000 g/ha [7] of the same compound?
**A.** 0%

**Q.** What about the pest or weed control at 1000 g/ha [8] of the same compound?
**A.** 20%

**Q.** What about the pest or weed control at 1000 g/ha [9] of the same compound?
**A.** 0%

**Q.** And the pest or weed control at 1000 g/ha [10]?
**A.** 0%

**Q.** What about the pest or weed control at 1000 g/ha [11] of the same compound?
**A.** 60%

**Q.** And the pest or weed control at 1000 g/ha [12]?
**A.** 50%

**Q.** For COC(=O)c1nc(C2CC2)nc(NC(C)c2ccc(Br)cc2)c1Cl (stereo not drawn) [Compound 4-177, 4-[1-(4-Bromophenyl)ethyl-amino]-5-chloro-2-cyclopropyl-6-methoxycarbonyl-pyrimidine], which pest or weed control at 1000 g/ha [1] is on record?
**A.** 40%

**Q.** What about the pest or weed control at 1000 g/ha [2] of the same compound?
**A.** 50%

**Q.** What about the pest or weed control at 1000 g/ha [3] of the same compound?
**A.** 90%

**Q.** And the pest or weed control at 1000 g/ha [4]?
**A.** 20%

**Q.** And the pest or weed control at 1000 g/ha [5]?
**A.** 100%

**Q.** What about the pest or weed control at 1000 g/ha [6] of the same compound?
**A.** 90%

**Q.** And the pest or weed control at 1000 g/ha [7]?
**A.** 0%

**Q.** What about the pest or weed control at 1000 g/ha [8] of the same compound?
**A.** 0%

**Q.** And the pest or weed control at 1000 g/ha [9]?
**A.** 0%

**Q.** And the pest or weed control at 1000 g/ha [10]?
**A.** 0%

**Q.** What about the pest or weed control at 1000 g/ha [11] of the same compound?
**A.** 20%

**Q.** And the pest or weed control at 1000 g/ha [12]?
**A.** 20%

**Q.** Which pest or weed control at 1000 g/ha [1] does the source give for CCCCCc1ccc(C(C)Nc2nc(C3CC3)nc(C(=O)OC)c2Cl)cc1 (stereo not drawn) [Compound 4-178, 5-Chloro-2-cyclopropyl-6-methoxycarbonyl-4-[1-(4-n-pentyl-phenyl)ethylamino]-pyrimidine] here?
**A.** 30%

**Q.** And the pest or weed control at 1000 g/ha [2]?
**A.** 20%

**Q.** What about the pest or weed control at 1000 g/ha [3] of the same compound?
**A.** 80%

**Q.** And the pest or weed control at 1000 g/ha [4]?
**A.** 20%

**Q.** What about the pest or weed control at 1000 g/ha [5] of the same compound?
**A.** 70%

**Q.** What about the pest or weed control at 1000 g/ha [6] of the same compound?
**A.** 70%

**Q.** What about the pest or weed control at 1000 g/ha [7] of the same compound?
**A.** 10%

**Q.** What about the pest or weed control at 1000 g/ha [8] of the same compound?
**A.** 10%

**Q.** What about the pest or weed control at 1000 g/ha [9] of the same compound?
**A.** 30%

**Q.** What about the pest or weed control at 1000 g/ha [10] of the same compound?
**A.** 10%

**Q.** What about the pest or weed control at 1000 g/ha [11] of the same compound?
**A.** 40%

**Q.** And the pest or weed control at 1000 g/ha [12]?
**A.** 60%
